Results reported in PubChem BioAssay AID2060343 (Molecular Pharmacology Branch, DTP, NCI, 2025).

Tested on: 138582-337-R-J1-PDC spheroids with HUVEC/MSC, viability
Assay: Anticancer human tumor 138582-337-R-J1-PDC patient-derived Merkel cell tumor cell line growth inhibition [IpAb]
Conditions: for IC50: curve of first compound; for viability, T/C: stronger effect = lower value; active = viability on the fitted dose curve at most 10% of control; inactive = the rest
Source text: Combinatorial screen of targeted agents with ipatasertib and abemaciclib in multi-cell type tumor spheroids
A high-throughput screen of multi-cell type tumor spheroids was designed to identify active combinations of targeted small molecules and ipatasertib or abemaciclib. Complex spheroids include a stromal component modeled by human endothelial cells (HUVEC) and fibroblasts modeled by human mesenchymal stem cells (MSCs). The concentration ranges selected for each drug and investigational agent were based upon clinically achievable concentrations if the clinical Cmax of the agent was known.
Compounds. The drugs and investigational agents: ipatasertib (NSC767898), abemaciclib(NSC768073), selumetinib (NSC741078), trametinib (758246), adavosertib (NSC754352), everolimus (NSC733504), sapanisertib (NSC764658), vemurafenib (NSC761431), venetoclax (NSC766270), copanlisib (NSC809693), apelisib (NSC765974), palbociblib (NSC758247), vemurafenib (NSC761431), dabrafenib (NSC764134), ravoxertinib (NSC781343), BMS-387032 (NSC767048), sotorasib (NSC818433), talazoparib (NSC767125) and afursertib (NSC778305), were obtained from the National Cancer Institute (NCI) Developmental Therapeutics Program Chemical Repository. The FDA-approved anticancer drug set is available from the NCI Developmental Therapeutics Program. […] The stock solutions were prepared in dimethyl sulfoxide (DMSO, Sigma-Aldrich, St. Louis, MO, cat. D2650) at 800-fold the tested concentration and stored at -70 degrees C prior to their use. All drugs and investigational agents were tested over a range starting from a high concentration at or near the clinical Cmax and decreasing in half-log increments. If the clinical Cmax for an agent had not been determined, the highest concentration tested was 10 microM.
NCI60 Cell Culture. NCI60 cell lines were obtained from the NCI Developmental Therapeutics Program Tumor Repository. For each lot of cells, the Repository performed Applied Biosystems AmpFLSTR Identifiler testing with PCR amplification to confirm consistency with the published Identifier STR profile for each cell line. Cells were kept in continuous culture for no more than 20 passages. The optimal seeding densities for each of the cell lines at each time point assessed were determined prior to performing the concentration response studies. Briefly, the NCI60 human tumor lines were grown as monolayers in RPMI 1640 medium supplemented with 10% FBS and 2 mmol/L L-glutamine.
An additional 9 lines were from the NCI60 cell line panel including MDA-MB-231 breast carcinoma, MDA-MB-468 breast carcinoma, MCF7 breast carcinoma, Hs578T breast carcinoma, MALME-3M melanoma, SK-MEL-2 melanoma, SK-OV-3 ovarian carcinoma, DU-145 prostate carcinoma, PC-3 prostate carcinoma, all cell lines along with major genetic alterations are listed on Table 2. Pooled donor human umbilical vein endothelial cells (HUVEC, Lonza, cat. CC-2519) and human mesenchymal stem cells (hMSC, Lonza, cat. PT-2501) were purchased from Lonza (Walkersville, MD).
PDMR cell lines were grown in complete medium (DC medium): Dulbecco's modified Eagle's medium (DMEM)/F12 supplemented with 5% fetal bovine serum (FBS), 2 mM L-glutamine, 100 U/mL penicillin and 100 µg/ml streptomycin, 0.4 µg/ml hydrocortisone, 10 ng/ml epidermal growth factor (EGF) recombinant human protein, 24 µg/mL adenine, and 0.1 mg/mL primocin. During culture from frozen stock vials, PDMR cells were cultured in the same medium containing 10 µM Y-27632 (see Table 3). The PDCs were cultured in complete DMEM/F12 media without 10 microM Y-27632 dihydrochloride for at least two passages prior to the screen. The pooled donor HUVEC and hMSC were cultured in endothelial cell growth medium 2 (PromoCell, Heidelberg, Germany, cat. C-22011) and mesenchymal stem cell growth medium 2 (PromoCell, cat. C-28009), respectively. For all experiments, HUVEC and hMSC were used at passages </=5.
[…]

[1] = second compound 0.1 µM, first compound 0.0316 µM
[2] = second compound 0.1 µM, first compound 0.1 µM
[3] = second compound 0.1 µM, first compound 0.316 µM
[4] = second compound 0.1 µM, first compound 1 µM
[5] = second compound 0.316 µM, first compound 0.0316 µM
[6] = second compound 0.316 µM, first compound 0.1 µM
[7] = second compound 0.316 µM, first compound 0.316 µM
[8] = second compound 0.316 µM, first compound 1 µM
[9] = second compound 1 µM, first compound 0.0316 µM
[10] = second compound 1 µM, first compound 0.1 µM
[11] = second compound 1 µM, first compound 0.316 µM
[12] = second compound 1 µM, first compound 1 µM
[13] = second compound 3.16 µM, first compound 0.0316 µM
[14] = second compound 3.16 µM, first compound 0.1 µM
[15] = second compound 3.16 µM, first compound 0.316 µM
[16] = second compound 3.16 µM, first compound 1 µM
[17] = second compound 10 µM, first compound 0.0316 µM
[18] = second compound 10 µM, first compound 0.1 µM
[19] = second compound 10 µM, first compound 0.316 µM
[20] = second compound 10 µM, first compound 1 µM
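Note: spheroids exposed to compounds for seven days.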

CC(=O)c1c(C)c2cnc(Nc3ccc(N4CCNCC4)cn3)nc2n(C2CCCC2)c1=O + CC(C)NCC(C(=O)N1CCN(c2ncnc3c2C(C)CC3O)CC1)c1ccc(Cl)cc1
< 0.000949 µM: IC50 (second compound 10 µM)
inactive: viability, T/C (second compound 0.1 µM, first compound 0.000949 µM) 101% | viability, T/C (second compound 0.1 µM, first compound 0.003 µM) 98.6% | viability, T/C (second compound 0.1 µM, first compound 0.00949 µM) 92.3% | viability, T/C (second compound 0.1 µM, first compound 0.03 µM) 94.3% | viability, T/C (second compound 0.1 µM, first compound 0.0949 µM) 89.2% | viability, T/C (second compound 0.1 µM, first compound 0.3 µM) 103% | viability, T/C (second compound 0.316 µM, first compound 0.000949 µM) 76.2% | viability, T/C (second compound 0.316 µM, first compound 0.003 µM) 74.1% | viability, T/C (second compound 0.316 µM, first compound 0.00949 µM) 78.6% | viability, T/C (second compound 0.316 µM, first compound 0.03 µM) 80.7% | viability, T/C (second compound 0.316 µM, first compound 0.0949 µM) 66.5% | viability, T/C (second compound 0.316 µM, first compound 0.3 µM) 80.6% | viability, T/C (second compound 1 µM, first compound 0.000949 µM) 65.5% | viability, T/C (second compound 1 µM, first compound 0.003 µM) 62.5% | viability, T/C (second compound 1 µM, first compound 0.00949 µM) 59.6% | viability, T/C (second compound 1 µM, first compound 0.03 µM) 52.8% | viability, T/C (second compound 1 µM, first compound 0.0949 µM) 65% | viability, T/C (second compound 1 µM, first compound 0.3 µM) 64.3% | viability, T/C (second compound 3.16 µM, first compound 0.000949 µM) 51% | viability, T/C (second compound 3.16 µM, first compound 0.003 µM) 54.5% | viability, T/C (second compound 3.16 µM, first compound 0.00949 µM) 54% | viability, T/C (second compound 3.16 µM, first compound 0.03 µM) 47.1% | viability, T/C (second compound 3.16 µM, first compound 0.0949 µM) 61.6% | viability, T/C (second compound 3.16 µM, first compound 0.3 µM) 47% | viability, T/C (second compound 10 µM, first compound 0.000949 µM) 45.1% | viability, T/C (second compound 10 µM, first compound 0.003 µM) 44.3% | viability, T/C (second compound 10 µM, first compound 0.00949 µM) 45% | viability, T/C (second compound 10 µM, first compound 0.03 µM) 38.9% | viability, T/C (second compound 10 µM, first compound 0.0949 µM) 37.8% | viability, T/C (second compound 10 µM, first compound 0.3 µM) 44.1%
> 0.3 µM: IC50 (second compound 0.1 µM) | IC50 (second compound 0.316 µM) | IC50 (second compound 1 µM) | IC50 (second compound 3.16 µM)

COc1c(OCCCN2CCOCC2)ccc2c3n(c(=NC(=O)c4cnc(N)nc4)nc12)CCN3 + CC(C)NCC(C(=O)N1CCN(c2ncnc3c2C(C)CC3O)CC1)c1ccc(Cl)cc1
0.0465 µM: IC50 (second compound 0.1 µM)
0.0273 µM: IC50 (second compound 0.316 µM)
< 0.00316 µM: IC50 (second compound 3.16 µM) | IC50 (second compound 10 µM)
inactive: viability, T/C (second compound 0.1 µM, first compound 0.00316 µM) 81.3% | viability, T/C (second compound 0.1 µM, first compound 0.01 µM) 74.2% | viability, T/C [1] 58.3% | viability, T/C [2] 32.5% | viability, T/C [3] 19.8% | viability, T/C (second compound 0.316 µM, first compound 0.00316 µM) 74.7% | viability, T/C (second compound 0.316 µM, first compound 0.01 µM) 63% | viability, T/C [5] 49.4% | viability, T/C [6] 28.9% | viability, T/C [7] 16.7% | viability, T/C (second compound 1 µM, first compound 0.00316 µM) 59.3% | viability, T/C (second compound 1 µM, first compound 0.01 µM) 53% | viability, T/C [9] 39.3% | viability, T/C [10] 25.6% | viability, T/C [11] 13.9% | viability, T/C (second compound 3.16 µM, first compound 0.00316 µM) 46.8% | viability, T/C (second compound 3.16 µM, first compound 0.01 µM) 41.7% | viability, T/C [13] 33.9% | viability, T/C [14] 21.5% | viability, T/C [15] 13.9% | viability, T/C (second compound 10 µM, first compound 0.00316 µM) 35.6% | viability, T/C (second compound 10 µM, first compound 0.01 µM) 31.9% | viability, T/C [17] 24.8% | viability, T/C [18] 16.3%
0.0118 µM: IC50 (second compound 1 µM)
active: viability, T/C [4] 3.52% | viability, T/C [8] 2.34% | viability, T/C [12] 1.91% | viability, T/C [16] 1.61% | viability, T/C [19] 6.62% | viability, T/C [20] 1.13%

Cc1nc(NC(=O)N2CCCC2C(N)=O)sc1-c1ccnc(C(C)(C)C(F)(F)F)c1 (stereo not given) + CC(C)NCC(C(=O)N1CCN(c2ncnc3c2C(C)CC3O)CC1)c1ccc(Cl)cc1
1.49 µM: IC50 (second compound 0.1 µM)
active: viability, T/C (second compound 3.16 µM, first compound 10 µM) 5.2% | viability, T/C (second compound 10 µM, first compound 10 µM) 1.06%
inactive: viability, T/C [1] 93.4% | viability, T/C [2] 77.3% | viability, T/C [3] 67.5% | viability, T/C [4] 52.8% | viability, T/C (second compound 0.1 µM, first compound 3.16 µM) 47.6% | viability, T/C (second compound 0.1 µM, first compound 10 µM) 22.7% | viability, T/C [5] 81.3% | viability, T/C [6] 71.7% | viability, T/C [7] 63.1% | viability, T/C [8] 42.7% | viability, T/C (second compound 0.316 µM, first compound 3.16 µM) 45.7% | viability, T/C (second compound 0.316 µM, first compound 10 µM) 16.4% | viability, T/C [9] 67.2% | viability, T/C [10] 60.4% | viability, T/C [11] 59.5% | viability, T/C [12] 43.5% | viability, T/C (second compound 1 µM, first compound 3.16 µM) 36.4% | viability, T/C (second compound 1 µM, first compound 10 µM) 14.2% | viability, T/C [13] 49.9% | viability, T/C [14] 43.9% | viability, T/C [15] 44.9% | viability, T/C [16] 35.7% | viability, T/C (second compound 3.16 µM, first compound 3.16 µM) 27.1% | viability, T/C [17] 40.5% | viability, T/C [18] 40% | viability, T/C [19] 32.9% | viability, T/C [20] 25.7% | viability, T/C (second compound 10 µM, first compound 3.16 µM) 15.2%
0.961 µM: IC50 (second compound 0.316 µM)
< 0.0316 µM: IC50 (second compound 3.16 µM) | IC50 (second compound 10 µM)
0.704 µM: IC50 (second compound 1 µM)
